What all share (experiment): DTP human tumour cell line panel, 48 h
Assay [1] relates to EKVX NSCLC.
For assay [2], the system named is MDA-MB-231 breast.
Assay [3] concerns K-562 leukemia.
The test system of assay [4] is OVCAR-8 ovarian.
In assay [5] the test system is MDA-N.
Assay [6] has as its system LOX IMVI melanoma.
The test system of assay [7] is HT29 colon.
Assay [8] deals with A498 renal.
Assay [9] has as its system UACC-62 melanoma.

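Five compound concentrations were applied to cells in 96-well plates for 48 hours; endpoints were derived by simple linear interpolation of the resulting dose-response curve. At the GI50, growth is halved. TGI: concentration producing complete growth inhibition.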

The TGI is the concentration at which net growth stops. Turning to `Oc1ccc2ccccc2c1/C=C/c1ccc2c(Br)cc(Br)c(O)c2n1`, the TGI in [1] turned out to be 15.3 µM; in [2] it was 23.4 µM; in assay [3], 22.5 µM; in assay [4], 20.1 µM; in [5] it was 26.7 µM; in assay [6], 23 µM. Further, the values for the TGI in [7], in assay [8] and in [9] were 41.4 µM, 18.6 µM and 24.2 µM, respectively.

For `COc1nc(C(=O)NNC(=O)c2nc(OC)c3ccccc3c2-c2ccccc2)c(-c2ccccc2)c2ccccc12`, the concentration for total growth inhibition (TGI) in assay [1], in [2], in assay [3], in assay [4], in assay [7] and in assay [8] was more than 100 µM throughout. This compound had a TGI in assay [9] of more than 100 µM.

Regarding `C=CCNC1=C2C[C@@H](C)C[C@@H](OC)[C@H](OC(=O)CCCCN)[C@H](C)/C=C(\C)[C@@H](OC(N)=O)[C@H](OC)/C=C\C=C(/C)C(=O)NC(=CC1=O)C2=O`, the TGI in [1] was 26.9 µM; in [2], 27.7 µM; in assay [3], more than 100 µM; in assay [4], 37.3 µM; in assay [5], 22 µM; in assay [6], 27.5 µM. The values for the TGI in [7], in assay [8] and in assay [9] were 14.8 µM, 25.9 µM and 27.7 µM, respectively.

With `N#C/C(C(=O)Nc1ccccc1)=C(/N)N1CCOCC1`, the TGI in [1], in [3], in assay [4], in assay [5], in assay [6] and in assay [8] was more than 100 µM in each case. The same compound returned a TGI in assay [9] of more than 100 µM.

On to `CCn1c(-c2cc(OC)cc(OC)c2)nc2c1C(=O)c1ccccc1C2=O`, for which the TGI in assay [1], in [2], in assay [3], in assay [4], in [5] and in [7] was more than 100 µM each time. In addition, in [9], the concentration for total growth inhibition (TGI) was more than 100 µM.

On to `CN(C)Cc1cc(C(=O)/C=C/c2ccc(Cl)cc2)cc(CN(C)C)c1O`, for which the TGI came to 38.8 µM in [1]; 23.5 µM in assay [2]; 21.4 µM in [3]; 51.3 µM in assay [4]; 25.3 µM in assay [5]; 15.3 µM in assay [6]. Further, the TGI was determined as 18.6 µM in assay [7] and 27.7 µM in assay [8].

As for `COc1cc(-c2cc(=O)c3c(OC)c(OC)c(OC)c(OC)c3o2)c(OC)c(OC)c1OC`, the TGI in assay [1], in [2], in [3], in [4], in assay [5] and in assay [6] was more than 100 µM each time. The values for the total growth inhibition concentration (TGI) in assay [7] and in assay [9] were more than 100 µM and 49.1 µM, respectively.

As for `CC(C)(C)OC(=O)NCC(O)CNC(=O)OC(C)(C)C`, the TGI in [1], in assay [2], in assay [3], in assay [4], in assay [6] and in [8] was more than 100 µM each time. In assay [9], this compound had a TGI of more than 100 µM.

With `COC(=O)Cc1cc(O)c(C/C=C(\C)CC/C=C(\C)C(O)C(=O)C=C(C)C)cc1O` (stereo not drawn), the TGI in assay [1] was 66.8 µM; in [2] it was 78.3 µM; in [3], 39.1 µM; in [4] it was 55.1 µM; in [5] it was more than 100 µM; in [7], 61.3 µM. For the same compound, the TGI in assay [9] was 44.4 µM.

As to `Cc1cccc(-c2nc3ccc([N+](=O)[O-])cc3c(=O)o2)c1`, the TGI in assay [2], in assay [3], in [4], in assay [5], in assay [6] and in [7] was more than 100 µM each time. For the same compound, the TGI in [8] and in assay [9] was more than 100 µM each time.

A word on the GI50: it is the concentration that inhibits growth by half. In the case of `O=[N+]([O-])c1ccc(C=C2C(Cl)=C(Cl)C(Cl)=C2Cl)cc1`, the GI50 in assay [1] was 3.67 µM; in assay [2] it was 3.39 µM; in assay [3], 3.68 µM; in [4] it was 2160 nM; in [6], 2000 nM; in assay [7], 2640 nM. The GI50 is 5.13 µM in assay [8] and 4.24 µM in assay [9]. The concentration for total growth inhibition (TGI) in assay [1] was more than 100 µM; in assay [2] it was more than 100 µM; in assay [3], more than 100 µM; in [4], 5.28 µM; in [6] it was 4.3 µM; in assay [7], 7.14 µM. Moreover, the TGI in assay [8] worked out at 26.6 µM; in assay [9], 24.4 µM.

As to `CCOC(=O)C1=CC(C)(C(=O)OCC)Nc2c(nc(OC)n(C)c2=O)N1` (stereo not drawn), the TGI in assay [1], in assay [2], in assay [3], in assay [4], in [5] and in assay [6] was more than 10 µM each time. For the same compound, the TGI in assay [7] and in assay [8] was more than 10 µM throughout.

For the compound `Cc1cc2nc3c(C#N)c(-c4ccccc4)cc(Nc4ccc(Cl)cc4)n3c2cc1C`, the TGI in assay [1], in [2], in [4], in assay [5], in assay [6] and in assay [8] was more than 100 µM in each case.

For `CC(=O)c1c2c(cc3c1CC1(Cc4ccccc4C1=O)C3)CCC2` (stereo not drawn), the TGI in assay [1] was 63.9 µM; in assay [2] it was 93.4 µM; in assay [3] it was more than 100 µM; in [4] it was 89.1 µM; in assay [5] it was more than 100 µM; in assay [6], 55.7 µM. The TGI in assay [7] and in [8] was more than 100 µM each time.

For the compound `CCc1nc(N)nc(N)c1-c1ccc(Cl)c(Cl)c1`, the TGI in [1], in assay [2], in assay [6], in [7], in assay [8] and in assay [9] was more than 100 µM in each case.

As for `COc1cc(Nc2cnc3cc(F)c(F)cc3n2)cc(OC)c1OC`, the TGI in [1], in assay [4], in assay [5], in assay [6], in assay [7] and in [8] was more than 100 µM each time. In [9], the TGI is more than 100 µM.
